SMILES strings stand for the structures.

The term Ki denotes a measure of affinity in units of concentration, obtained from inhibition or displacement.

In the assay the target is T1, Phenylethanolamine N-methyltransferase (Bos taurus, UniProt P10938).
T1 sequence (P10938 whole entry): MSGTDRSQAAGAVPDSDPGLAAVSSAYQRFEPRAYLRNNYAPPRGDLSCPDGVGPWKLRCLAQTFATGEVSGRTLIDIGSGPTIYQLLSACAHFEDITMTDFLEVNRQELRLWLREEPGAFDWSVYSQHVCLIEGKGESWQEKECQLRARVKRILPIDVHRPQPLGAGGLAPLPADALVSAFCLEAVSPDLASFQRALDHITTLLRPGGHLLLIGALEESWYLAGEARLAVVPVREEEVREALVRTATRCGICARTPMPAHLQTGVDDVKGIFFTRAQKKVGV
In words: Inhibitory activity against bovine adrenal norepinephrine N-methyl-transferase was determined.
In turn, `N[C@H](CO)CC1CCCCC1` yielded a Ki of 125 µM.

`N[C@@H](CO)Cc1ccccc1` came in with a Ki of 379 µM.

In the case of `N[C@@H](CO)CC1CCCCC1`, the Ki amounted to 33 µM.

On to `N[C@@H](CO)c1ccccc1`, for which the affinity corresponds to a Ki of 88 µM.

`CCC(N)Cc1ccccc1` (stereo not given) yielded an inhibition constant Ki of over 1000 µM.

Take `NC(CC1CCCCC1)c1ccccc1` (stereo not given): the Ki was over 1000 µM.

Regarding `CCCC(N)c1ccccc1` (stereo not given), the inhibitory constant (Ki) is over 1000 µM.

As for `NC(Cc1ccccc1)Cc1ccccc1`, the Ki was over 1000 µM.

For `CCCC(N)Cc1ccccc1` (stereo not given), the Ki is over 1000 µM.

`NC(CO)Cc1ccccc1` (racemic) returned a Ki of 385 µM.

The compound `NC(CO)CC1CCCCC1` (racemic) had a Ki of 47 µM.

For the compound `NC(CO)c1ccccc1` (racemic), the Ki came to 1220 µM.

Compound `C[C@H](N)Cc1ccccc1` [DEXTROAMPHETAMINE] yielded a Ki of 442 µM.

`N[C@H](CO)Cc1ccccc1` [L-PHENYLALANINOL]: the affinity corresponds to a Ki of 664 µM.

Consider `C[C@@H](N)Cc1ccccc1` [LEVAMFETAMINE], for which the affinity corresponds to a Ki of 1380 µM.
